Laboratory results from US8211901B2, “Naphthamide derivatives as multi-target protein kinase inhibitors and histone deacetylase inhibitors” (Shenzhen Chipscreen Biosciences Ltd., priority 2009, dated 2012).

What was measured:
Format in all cases: in vivo, nu/nu mice
[1] = test system: human SSMC7721 liver cancer xenograft; experiment: Antitumor activity of compound 31, SSMC7721 xenograft (Example 53); conditions: 40 mg/kg orally once a day for 30 days
Experimental: (§1) The antitumor activity of compound 31 was measured in human SSMC7721 liver cancer xenograft model. The female nu/nu mice of 18˜20 g were fed by normal diet for 3 days. Then the cultured SSMC7721 human liver cancer cells were implanted into the armpit of 50 mice. […] One group was treated with vehicle. One group was treated with sutent, the positive control drug. […] Each group was dosed orally once a day for 30 days. Tumor volumes as established by caliper measurements were recorded twice per week, along with body weights. At the end of study, the mice were killed, and tumors were weighed. The tumor growth inhibition of each group was calculated using the formula {[(the average tumor weight of vehicle group)−(the average tumor weight of drug group)]/(the average tumor weight of vehicle group)}×100%.

[2] = Body weight in SSMC7721 xenograft study (Example 56); conditions: 40 mg/kg orally once a day for 30 days
Experimental: The antitumor activity of compound 33 and compound 37 were measured in human SSMC7721 liver cancer xenograft model. The female nu/nu mice of 18˜20 g were fed by normal diet for 3 days. Then the cultured SSMC7721 human liver cancer cells were implanted into the armpit of 50 mice. […] Each group has 8 mice. One group was treated with vehicle. One group was treated with sutent, the positive control drug. Two groups were treated with compound 33. The other two groups were treated with compound 37. Each group was dosed orally once a day for 30 days. Tumor volumes as established by caliper measurements were recorded twice per week, along with body weights. At the end of study, the mice were killed, and tumors were weighed. The tumor growth inhibition of each group was calculated using the formula {[(the average tumor weight of vehicle group)−(the average tumor weight of drug group)]/(the average tumor weight of vehicle group)}×100%.

[3] = Body weight in SSMC7721 xenograft study (Example 53); conditions: 40 mg/kg orally once a day for 30 days
Experimental: as §1

[4] = Body weight in HCT-8 xenograft study (Example 54); conditions: 40 mg/kg orally once a day for 20 days
Experimental: (§2) The antitumor activity of compound 33 and compound 34 were measured in human HCT-8 colon cancer xenograft model. The female nu/nu mice of 18˜20 g were fed by normal diet for 3 days. Then the cultured HCT-8 human colon cancer cells were implanted into the armpit of 50 mice. When tumors had reached approximately 100 mm^3, the mice were divided into 6 groups randomly. Each group has 8 mice. One group was treated with vehicle. One group was treated with sutent, the positive control drug. Two groups were treated with compound 33. The other two groups were treated with compound 34. Each group was dosed orally once a day for 20 days. Tumor volumes as established by caliper measurements were recorded twice per week, along with body weights. At the end of study, the mice were killed, and tumors were weighed. The tumor growth inhibition of each group was calculated using the formula {[(the average tumor weight of vehicle group)−(the average tumor weight of drug group)]/(the average tumor weight of vehicle group)}×100%.

[5] = test system: human HCT-8 colon cancer xenograft; experiment: Antitumor activity of compounds 33 and 37, HCT-8 xenograft (Example 55); conditions: 40 mg/kg orally once a day for 20 days
Experimental: (§3) The antitumor activity of compound 33 and compound 37 were measured in human HCT-8 colon cancer xenograft model. The female nu/nu mice of 18˜20 g were fed by normal diet for 3 days. Then the cultured HCT-8 human colon cancer cells were implanted into the armpit of 50 mice. […] One group was treated with vehicle. One group was treated with sutent, the positive control drug. Two groups were treated with compound 33. The other two groups were treated with compound 37. Compound 33 was administered twice a day with an interval of 6 hours. Other drugs and vehicle were administered once a day. Each group was dosed orally for 20 days. Tumor volumes as established by caliper measurements were recorded twice per week, along with body weights. At the end of study, the mice were killed, and tumors were weighed. The tumor growth inhibition of each group was calculated using the formula {[(the average tumor weight of vehicle group)−(the average tumor weight of drug group)]/(the average tumor weight of vehicle group)}×100%.

[6] = Body weight in A549 xenograft study (Example 51); conditions: 40 mg/kg orally once a day for 24 days
Experimental: The antitumor activity of compound 31 was measured in human A549 lung cancer xenograft model. […] Then the cultured A549 human lung cancer cells were implanted into the armpit of 50 mice. When tumors had reached approximately 6 mm in diameter, the mice were divided into 6 groups randomly. Each group has 8 mice. One group was treated with vehicle. One group was treated with sutent, the positive control drug. […] Each group was dosed orally once a day for 24 days. Tumor volumes as established by caliper measurements were recorded twice per week, along with body weights. At the end of study, the mice were killed, and tumors were weighed. The tumor growth inhibition of each group was calculated using the formula {[(the average tumor weight of vehicle group)-(the average tumor weight of drug group)]/(the average tumor weight of vehicle group)}×100%.

[7] = Body weight in HCT-8 xenograft study (Example 55); conditions: 40 mg/kg orally once a day for 20 days
Experimental: as §3

[8] = Body weight in HCT-8 xenograft study (Example 52); conditions: 40 mg/kg orally once a day for 20 days
Experimental: as §2, with “31 was” for “33 and compound 34 were”, “Two groups were treated with compound 33. The other two groups were treated with compound 34.” left out

Structure (SMILES): CCN(CC)CCNC(=O)c1c(C)[nH]c(/C=C2\C(=O)Nc3ccc(F)cc32)c1C [Sutent, reference compound]
- TGI (%) Tumor growth inhibition [1]: 70.3%
- Tumor weight [1]: 1.00 ± 0.68 g
- Body weight (g) end ([2]; end): 24.0 ± 0.6 g
- Body weight (g) start ([2]; start): 21.2 ± 1.1 g
- Body weight (g) end ([3]; end): 24.8 ± 1.2 g
- Body weight (g) start ([3]; start): 21.0 ± 0.8 g
- Body weight (g) end ([4]; end): 22.1 ± 1.5 g
- Body weight (g) start ([4]; start): 20.6 ± 1.2 g
- TGI (%) Tumor growth inhibition [5]: 95.3%
- Body weight (g) end ([6]; end): 24.4 ± 2.3 g
- Body weight (g) start ([6]; start): 20.3 ± 1.4 g
- Body weight (g) end ([7]; end): 23.7 ± 0.8 g
- Body weight (g) start ([7]; start): 21.3 ± 0.6 g
- Body weight (g) end ([8]; end): 22.4 ± 1.1 g
- Body weight (g) start ([8]; start): 21.5 ± 0.7 g
